Measurements: patent US20260102397A1, “PHARMACEUTICAL COMPOSITION FOR TREATING LEUKEMIA COMPRISING FLT3 INHIBITOR” (HANMI PHARM. CO., LTD., priority 2020, published 2026)

Key:
SYK = biological target: T1, SYK (Homo sapiens, UniProt P43405); assay: Kinase inhibition test, Z'-LYTE; type: biochemical; conditions: read-out: 50% activity inhibition value (IC50), SYK
T1 construct: purchased Thermo Fisher Scientific
Method: Activity measurement was conducted using LanthaScreen test method (wild type and mutation type FLT3) or Z′-LYTE test method (SYK) developed by Thermo Fisher Scientific. LanthaScreen test method is a method of measuring protein activity by measuring fluorescence resonance energy transfer (FRET) signal under the existence of europium-conjugated antibody on the basis of the binding of Alexa Fluor 647-labelled, ATP-competitive kinase inhibitor (kinase tracer-236) to kinase. Z′-LYTE test method is a method using an enzyme which can cut dephosphorylated substrate, and this method measures the activity of kinase protein by measuring two fluorescent FRET signals attached to each end of peptide substrate. The two experiments were all conducted in 384 well plates under the conditions of 50 mM HEPES pH 7.5, 0.01% BRIJ-35, 10 mM MgCl2, 1 mM EGTA, and 1% DMSO.

[1] = test system: MOLM-14 FLT3-ITD/F691L cell strain; assay: Mouse model hypodermically implanted with MOLM-14 FLT3-ITD/F691L cell strain; type: in vivo; conditions: nude mice, MOLM-14 FLT3-ITD/F691L subcutaneous, 30 mg/kg/day oral once daily
Method: MOLM-14 FLT3-ITD/F691L cell strain was subcutaneously injected into a nude mouse at 3×10^^6 cell/0.15 mL/mouse and the mouse was left to grow.
The control group was administered for 13 days and the drug administration groups were administered for 18 days with each pertinent drug.
The tumor volume (mm^3) of the surviving mice in each group was plotted on the y-axis, whereas the number of days of medication was plotted on the x-axis. In order to evaluate the effects of the administration of drugs, the results of complete response (CR) in which tumor had completely disappeared were checked. […] (*p<0.05, **p<0.01, ***p<0.001, and ****p<0.0001 Sidk's test was conducted after two-way analysis of variance)

Cc1ccc2c(-c3nc(Nc4cc(CN5C[C@@H](C)N[C@@H](C)C5)cc(C5CC5)c4)ncc3Cl)c[nH]c2c1 [Compound A, 5-chloro-N-(3-cyclopropyl-5-(((3R,5S)-3,5-dimethylpiperazine-1-yl)methyl)phenyl)-4-(6-methyl-1H-indol-3-yl)pyrimidine-2-amin]
IC50 (SYK): 2.9 nM
complete response (CR, tumor completely disappeared), day of administration [1]: 12 days
volume of tumor compared with Gilteritinib administration group ([1]; 18 days, FIG. 1): reduced more significantly
